Measurements from PubChem BioAssay (NCI).
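Assay format: 96-well plates, 48-hour exposure. Here, GI50 denotes the concentration required for 50% inhibition of growth. The concentration for full growth arrest is given as TGI.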

How the values were obtained:
Experiment in all cases: NCI-60 cell line screen, 48 h
786-0 renal = system: 786-0 renal
A498 renal = system: A498 renal
A549 NSCLC = system: A549 NSCLC
ACHN renal = system: ACHN renal
BT-549 breast = system: BT-549 breast
CAKI-1 renal = system: CAKI-1 renal
CCRF-CEM leukemia = system: CCRF-CEM leukemia
COLO 205 colon = system: COLO 205 colon
DU-145 prostate = system: DU-145 prostate
EKVX NSCLC = system: EKVX NSCLC
HCC-2998 colon = system: HCC-2998 colon
HCT-116 colon = system: HCT-116 colon
HCT-15 colon = system: HCT-15 colon
HL-60(TB) leukemia = system: HL-60(TB) leukemia
HOP-62 NSCLC = system: HOP-62 NSCLC
HOP-92 NSCLC = system: HOP-92 NSCLC
HS 578T breast = system: HS 578T breast
HT29 colon = system: HT29 colon
IGROV1 ovarian = system: IGROV1 ovarian
K-562 leukemia = system: K-562 leukemia
KM12 colon = system: KM12 colon
LOX IMVI melanoma = system: LOX IMVI melanoma
M14 melanoma = system: M14 melanoma
MALME-3M melanoma = system: MALME-3M melanoma
MCF7 breast = system: MCF7 breast
MDA-MB-231 breast = system: MDA-MB-231 breast
MDA-MB-435 = system: MDA-MB-435
MDA-MB-468 breast = system: MDA-MB-468 breast
MOLT-4 leukemia = system: MOLT-4 leukemia
NCI-H226 lung = system: NCI-H226 lung
NCI-H23 lung = system: NCI-H23 lung
NCI-H460 lung = system: NCI-H460 lung
NCI-H522 lung = system: NCI-H522 lung
NCI/ADR-RES ovarian = system: NCI/ADR-RES ovarian
OVCAR-3 ovarian = system: OVCAR-3 ovarian
OVCAR-4 ovarian = system: OVCAR-4 ovarian
OVCAR-5 ovarian = system: OVCAR-5 ovarian
OVCAR-8 ovarian = system: OVCAR-8 ovarian
PC-3 prostate = system: PC-3 prostate
RPMI-8226 leukemia = system: RPMI-8226 leukemia
RXF 393 renal = system: RXF 393 renal
SF-268 CNS = system: SF-268 CNS
SF-295 CNS = system: SF-295 CNS
SF-539 CNS = system: SF-539 CNS
SK-MEL-2 melanoma = system: SK-MEL-2 melanoma
SK-MEL-28 melanoma = system: SK-MEL-28 melanoma
SK-MEL-5 melanoma = system: SK-MEL-5 melanoma
SK-OV-3 ovarian = system: SK-OV-3 ovarian
SN12C renal = system: SN12C renal
SNB-19 CNS = system: SNB-19 CNS
SNB-75 CNS = system: SNB-75 CNS
SR leukemia = system: SR leukemia
SW-620 colon = system: SW-620 colon
T-47D breast = system: T-47D breast
TK-10 renal = system: TK-10 renal
U251 CNS = system: U251 CNS
UACC-257 melanoma = system: UACC-257 melanoma
UACC-62 melanoma = system: UACC-62 melanoma
UO-31 renal = system: UO-31 renal

Cn1cc(-c2cc(N)n3nc(-c4c[nH]c5ccccc45)cc3n2)c2cc(Cl)ccc21
GI50 (786-0 renal): 1.6 µM | TGI (786-0 renal): 3.2 µM | GI50 (A498 renal): 10.1 µM | TGI (A498 renal): 22 µM | GI50 (A549 NSCLC): 3.15 µM | TGI (A549 NSCLC): 13 µM | GI50 (ACHN renal): 2.98 µM | TGI (ACHN renal): 10.6 µM | GI50 (BT-549 breast): 16.9 µM | TGI (BT-549 breast): 31.9 µM | GI50 (CAKI-1 renal): 2.96 µM | TGI (CAKI-1 renal): 12.4 µM | GI50 (CCRF-CEM leukemia): 3.22 µM | TGI (CCRF-CEM leukemia): > 100 µM | GI50 (COLO 205 colon): 2.17 µM | TGI (COLO 205 colon): 4.26 µM | GI50 (DU-145 prostate): 5.69 µM | TGI (DU-145 prostate): 22.5 µM | GI50 (EKVX NSCLC): 2.8 µM | TGI (EKVX NSCLC): 12.5 µM | GI50 (HCC-2998 colon): 1.8 µM | TGI (HCC-2998 colon): 3.41 µM | GI50 (HCT-116 colon): 1.84 µM | TGI (HCT-116 colon): 3.5 µM | GI50 (HCT-15 colon): 1.72 µM | TGI (HCT-15 colon): 3.29 µM | GI50 (HL-60(TB) leukemia): 2.91 µM | TGI (HL-60(TB) leukemia): 13.7 µM | GI50 (HOP-62 NSCLC): 2.84 µM | TGI (HOP-62 NSCLC): 10.8 µM | GI50 (HOP-92 NSCLC): 2.73 µM | TGI (HOP-92 NSCLC): 9.96 µM | GI50 (HS 578T breast): 4.06 µM | TGI (HS 578T breast): 24.3 µM | GI50 (HT29 colon): 1.76 µM | TGI (HT29 colon): 3.43 µM | GI50 (IGROV1 ovarian): 3.61 µM | TGI (IGROV1 ovarian): 14.6 µM | GI50 (K-562 leukemia): 2.27 µM | TGI (K-562 leukemia): 5.68 µM | GI50 (KM12 colon): 2.55 µM | TGI (KM12 colon): 6.63 µM | GI50 (LOX IMVI melanoma): 1.71 µM | TGI (LOX IMVI melanoma): 3.08 µM | GI50 (M14 melanoma): 2.15 µM | TGI (M14 melanoma): 4.93 µM | GI50 (MALME-3M melanoma): 3.93 µM | TGI (MALME-3M melanoma): 14.3 µM | GI50 (MCF7 breast): 1.65 µM | TGI (MCF7 breast): 3.58 µM | GI50 (MDA-MB-231 breast): 1.9 µM | TGI (MDA-MB-231 breast): 3.61 µM | GI50 (MDA-MB-435): 3.69 µM | TGI (MDA-MB-435): 13.4 µM | GI50 (MDA-MB-468 breast): 1.89 µM | TGI (MDA-MB-468 breast): 4.59 µM | GI50 (MOLT-4 leukemia): 1.87 µM | TGI (MOLT-4 leukemia): 5.24 µM | GI50 (NCI-H226 lung): 14.1 µM | TGI (NCI-H226 lung): 47.1 µM | GI50 (NCI-H23 lung): 2.45 µM | TGI (NCI-H23 lung): 7.38 µM | GI50 (NCI-H460 lung): 2.35 µM | TGI (NCI-H460 lung): 5.45 µM | GI50 (NCI-H522 lung): 1.64 µM | TGI (NCI-H522 lung): 3.43 µM | GI50 (NCI/ADR-RES ovarian): 2.85 µM | TGI (NCI/ADR-RES ovarian): 9.09 µM | GI50 (OVCAR-3 ovarian): 4.75 µM | TGI (OVCAR-3 ovarian): 29.6 µM | GI50 (OVCAR-4 ovarian): 7.3 µM | TGI (OVCAR-4 ovarian): 29.7 µM | GI50 (OVCAR-5 ovarian): 2.09 µM | TGI (OVCAR-5 ovarian): 4.81 µM | GI50 (OVCAR-8 ovarian): 3.53 µM | TGI (OVCAR-8 ovarian): 14.2 µM | GI50 (PC-3 prostate): 3.15 µM | TGI (PC-3 prostate): 11.4 µM | GI50 (RPMI-8226 leukemia): 3.42 µM | TGI (RPMI-8226 leukemia): 29 µM | GI50 (RXF 393 renal): 2.47 µM | TGI (RXF 393 renal): 8.46 µM | GI50 (SF-268 CNS): 5.21 µM | TGI (SF-268 CNS): 26.6 µM | GI50 (SF-295 CNS): 1.87 µM | TGI (SF-295 CNS): 3.79 µM | GI50 (SF-539 CNS): 1.81 µM | TGI (SF-539 CNS): 3.66 µM | GI50 (SK-MEL-2 melanoma): 6.75 µM | TGI (SK-MEL-2 melanoma): 24 µM | GI50 (SK-MEL-28 melanoma): 7.16 µM | TGI (SK-MEL-28 melanoma): 19.9 µM | GI50 (SK-MEL-5 melanoma): 7.16 µM | TGI (SK-MEL-5 melanoma): 19.7 µM | GI50 (SK-OV-3 ovarian): 15.9 µM | TGI (SK-OV-3 ovarian): 43 µM | GI50 (SN12C renal): 5.3 µM | TGI (SN12C renal): 18.8 µM | GI50 (SNB-19 CNS): 4.32 µM | TGI (SNB-19 CNS): 16.3 µM | GI50 (SNB-75 CNS): 4 µM | TGI (SNB-75 CNS): 18.3 µM | GI50 (SR leukemia): 0.857 µM | TGI (SR leukemia): > 100 µM | GI50 (SW-620 colon): 2 µM | TGI (SW-620 colon): 3.92 µM | GI50 (T-47D breast): 4.44 µM | TGI (T-47D breast): 20 µM | GI50 (TK-10 renal): 4.34 µM | TGI (TK-10 renal): 15.7 µM | GI50 (U251 CNS): 2.01 µM | TGI (U251 CNS): 4.44 µM | GI50 (UACC-257 melanoma): 10.6 µM | TGI (UACC-257 melanoma): 23.5 µM | GI50 (UACC-62 melanoma): 5.36 µM | TGI (UACC-62 melanoma): 18.7 µM | GI50 (UO-31 renal): 4.22 µM | TGI (UO-31 renal): 16.9 µM
